For data set [1], the target named is Cathepsin L (Homo sapiens, UniProt P07711). Kind of data set: Cathepsin L IC50. The format is biochemical. The conditions noted are these: read-out: Cathepsin IC50 (μM) Cathepsin L.
Data set [2] has as its target T1, Cathepsin K (Homo sapiens, UniProt P43235).
T1 sequence (P43235 115-329): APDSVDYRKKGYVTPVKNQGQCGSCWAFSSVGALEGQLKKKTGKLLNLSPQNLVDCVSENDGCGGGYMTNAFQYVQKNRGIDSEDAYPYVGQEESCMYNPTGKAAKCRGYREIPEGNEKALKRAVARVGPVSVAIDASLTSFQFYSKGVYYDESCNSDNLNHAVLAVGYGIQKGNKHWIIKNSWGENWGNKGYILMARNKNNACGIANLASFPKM
Kind of data set: Cathepsin K IC50. In kind it is biochemical.

Data set [3] deals with HCT116 human colorectal carcinoma cells. The data set can be described thus: In vitro cytotoxicity (Cell Tox), alamarBlue. In kind it is cell-based. The conditions noted are these: HCT-116, 96-hour continual compound exposure. From the text:
There is also a need for compounds that have a favourable safety profile, which may be measured by a variety of standard in vitro and in vivo methods. A cell toxicity counter-screen may be used to assay the anti-proliferative/cytotoxic effect in a particular cell line (e.g. HCT116) by fluorometric detection of rezasurin (alamarBlue™) to resofurin in response to mitochondrial activity.
Measured in HCT116 human colorectal carcinoma cells using alamarBlue™ as the assay endpoint. Compound cytotoxicity was measured over a period of 96-hour continual compound exposure.
Background: Resazurin is reduced to fluorescent resorufin, in cell work by metabolically active cells.

The subject of data set [4] is Cathepsins B, K, L, S, V. Kind of data set: Cathepsin panel IC50 (summary over B, K, L, S, V). The format is biochemical.
Data set [5] in a line: Brain homogenate binding, equilibrium dialysis. The following applies: mouse, read-out: Binding Mouse Brain fu, br. The format is in vitro ADME. An excerpt:
Brain fu,br: The free fraction of a compound in brain homogenate preparation determined by in vitro equilibrium dialysis. It is understood that only unbound (free) compound is capable of engaging with the target.
In general terms: In equilibrium dialysis only unbound substance equilibrates across the membrane.

The test system of data set [6] is hepatocytes. The data set can be described thus: Hepatocyte Cl human. The format is in vitro ADME. On the procedure: Hep Cl human: in vitro hepatocyte clearance in human cells.
(§1) Clu: in vitro clearance. Clu as defined here is the scaled clearance, in turn calculated from the intrinsic clearance. The intrinsic clearance is the predicted clearance due to hepatic metabolic reactions, determined from incubation of a compound in a hepatocyte preparation.

A short description of data set [7]: PK mouse 2 mg/kg iv. The conditions noted are these: plasma, read-out: Cl plasma. In kind it is in vivo. An excerpt: Cl in vivo clearance: Pharmacokinetic measurement of the volume of plasma (or any matrix) from which a substance is completely removed per unit time.
Data set [8] concerns the target T2, UCHL1 (Homo sapiens, UniProt P09936).
T2 sequence (P09936 1-223): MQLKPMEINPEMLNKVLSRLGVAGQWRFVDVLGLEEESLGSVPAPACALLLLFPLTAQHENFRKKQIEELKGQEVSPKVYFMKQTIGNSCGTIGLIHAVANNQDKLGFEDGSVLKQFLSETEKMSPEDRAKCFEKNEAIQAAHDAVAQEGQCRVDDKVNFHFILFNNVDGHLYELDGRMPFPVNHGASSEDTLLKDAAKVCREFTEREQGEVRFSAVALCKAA
Kind of data set: UCHL1 DUB IC50. In kind it is biochemical.

Data set [9] deals with UUO injured kidneys. Kind of data set: Unilateral ureteral obstructive kidney disease model (UUO). The format is in vivo, C57BL/6 mice. The following applies: 10 days. An excerpt: UUO causes renal injury characterised by tubular cell injury, interstitial inflammation and fibrosis. It serves as a model of irreversible post-renal acute kidney injury (AKI). Experimental UUO has illustrated the molecular mechanisms of apoptosis, inflammation and fibrosis, all of which are key processes in renal injury, regardless of the primary insult. Consequently, the UUO model provides investigators information beyond obstruction (Chevalier et al, 2009, Kidney Int 75(11): 1145-1152). Example 1 was assessed in the UUO model to determine the ability of the compound to attenuate progressive tubulointerstitial fibrosis and chronic kidney disease (CKD). On day 1 of the study, adult C57BL/6 mice were dosed by oral gavage according to one of the following dosing regimens; Vehicle or 15 mg/kg Example 1 (p.o.) BID. Two hours post dosing on day 1 study mice underwent surgery to ligate the left ureter at two points. Successful UUO surgery was later confirmed by observation of dilation of renal pelvis due to hydronephrosis. The animals were dosed according to their prescribed regimen for 10 days at which point kidneys were harvested, or histopathology assessment and for protein/RNA assessment. Picrosirius Red staining was performed to assess the extent of collagen deposition and IHC was employed to assess relative α-Smooth Muscle Actin (α-SMA) expression.

The nature of data set [10]: PK mouse 10 mg/kg PO. In kind it is in vivo. An excerpt: Oral F: Oral bioavailability.
Data set [11] relates to mouse hepatocytes. The data set can be described thus: Hepatocyte Cl mouse. In kind it is in vitro ADME. On the procedure:
Hep Cl mouse: in vitro hepatocyte clearance in mouse cells.
as §1

Bounds are passed on as bounds.

Sequence of Cathepsin L (P07711 114-333, species assumed): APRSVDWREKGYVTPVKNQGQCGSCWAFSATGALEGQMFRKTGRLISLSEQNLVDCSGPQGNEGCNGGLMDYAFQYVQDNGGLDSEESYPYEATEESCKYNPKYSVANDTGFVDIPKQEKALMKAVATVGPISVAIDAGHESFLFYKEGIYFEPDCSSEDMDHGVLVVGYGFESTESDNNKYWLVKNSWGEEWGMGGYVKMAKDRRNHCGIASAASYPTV

On to `COC[C@@H]1C[C@@H](NC(=O)c2ncc(-c3cccc(C(F)(F)F)c3)o2)CN1C#N` [Example 1, N-((3R,5S)-1-Cyano-5-(methoxymethyl)-pyrrolidin-3-yl)-5-(3-(trifluoromethyl)phenyl)oxazole-2-carboxamide], for which the IC50 in [1] is 30.4 µM; in data set [2] it was 10.2 µM; in data set [4] (range over the five cathepsins, read-out: Cathepsin IC50 (μM) B, K, L, S, V), 10.2 to 138 µM; in data set [8] it was greater than 300 µM. The compound also displayed an EC50 in data set [3] greater than 30 µM. For the same compound, the “Selectivity preference for USP30 v cathepsins” value in data set [4] is greater than 1133. The fraction unbound in data set [5] came to 0.05. Further, in data set [6], the “Hepatocyte Cl human Scaled Clu” value came out at 10.3 mL/min/kg. Moreover, the clearance in [7] amounted to 19 mL/min/kg. The “α-SMA levels in UUO injured kidneys (IHC)” value in [9] (15 mg/kg oral BID, vs vehicle treated controls) is “statistical reduction in α-SMA levels”. Also, the “collagen deposition (picrosirius red staining) in ligated kidneys” value in [9] (15 mg/kg p.o. BID, vs vehicle) is “statistically reduced collagen deposition”. Moreover, in data set [10] (10 mg/kg PO dose - mouse), the “Unbound plasma Cmax/TOM20-Ub cell potency” value is 41-fold. Besides, in data set [10] (plasma, po, mouse 10 mg/kg, read-out: Oral F (%)), the bioavailability turned out to be 82%. Further, the “Hepatocyte Cl mouse Scaled Clu” value in data set [11] amounted to 81 mL/min/kg. Also, the “hepatocyte metabolic stability compared to Reference Examples A and B (in words)” value in [11] is “significantly improved hepatocyte metabolic stability”.

The term IC50 denotes the concentration that gives 50% inhibition. The EC50 is the midpoint of the concentration-response curve. A higher EC50 goes with lower potency in that assay.

These data come from US20230219939A1, “N-(1-CYANO-PYRROLIDIN-3-YL)-5-(3-(TRIFLUOROMETHYL)PHENYL)OXAZOLE-2-CARBOXAMIDE DERIVATIVES AND THE CORRESPONDING OXADIAZOLE DERIVATIVES AS USP30 INHIBITORS FOR THE TREATMENT OF MITOCHONDRIAL DYSFUNCTION” (MISSION THERAPEUTICS LIMITED, priority 2020, published 2023).
